In US5914324A, “6-Hydroxy and 6-oxo-androstane derivatives active on the cardiovascular system and pharmaceutical compositions containing same” (Sigma-Tau Industrie Farmaceutiche Riunite S.p.A., priority 1996, dated 1999):
Where a name gives a salt, the structure may show the parent alone.

Columns and labels:
[1] = tested on: guinea pig left atrium; assay: inotropic activity in vitro, electrically paced guinea pig left atrium; conditions: Cavia porcellus
[2] = acute toxicity mouse oral; conditions: in vivo
Description: Finally the compounds of the invention have a low toxicity when compared with standard cardiotonic steroids.

[3] = molecular target: T1, Na+,K+-ATPase (Canis lupus familiaris, UniProt P50997); assay: displacement of the specific 3H-ouabain binding from the Na+,K+-ATPase receptor; conditions: displacement of specific 3H-ouabain binding, purified enzyme
T1 construct: Na^+,K^+ -ATPase receptor purified according to Jorghensen; from tissue
Description: (§1) To test the affinity for the receptor site of the Na^+,K^+ -ATPase and the inhibitory activity on the enzyme, the following tests were used: a) displacement of the specific 3H-ouabain binding from the Na^+,K^+ -ATPase receptor purified according to Jorghensen (Jorghensen P., BBA.

[4] = molecular target: T1, Na+,K+-ATPase; assay: inhibition of the activity of the purified Na+,K+-ATPase (hydrolysis of 32P-ATP); assay type: biochemical; conditions: purified enzyme
Description: as §1

C[C@H]1O[C@@H](O[C@H]2[C@@H](O)C[C@H](O[C@H]3[C@@H](O)C[C@H](O[C@H]4CC[C@@]5(C)[C@H](CC[C@@H]6[C@@H]5C[C@@H](O)[C@]5(C)[C@@H](C7=CC(=O)OC7)CC[C@]65O)C4)O[C@@H]3C)O[C@@H]2C)C[C@H](O)[C@@H]1O [Digoxin, reference compound]
EC50 [1]: 500 nM | LD50 [2]: 18 mg/kg

C[C@]12CCC(=NOCCN)C[C@@H]1[C@@H](O)C[C@@H]1[C@@H]2CC[C@]2(C)[C@@H](O)CC[C@@H]12 [I-a, (E,Z)-3-(2-aminoethoxyimino)-5α-androstan-6α,17β-diol oxalate]
EC50 [3]: 100 nM | IC50 [4]: 1600 nM | EC50 [1]: 2500 nM | LD50 [2]: > 600 mg/kg

C[C@]12CC[C@H](/C=N\OCCN)C[C@@H]1[C@@H](O)C[C@@H]1[C@@H]2CC[C@]2(C)[C@@H](O)CC[C@@H]12.O=C(O)C(=O)O [I-d, (Z)-3β-(2-aminoethoxyiminomethyl)-5α-androstan-6α,17β-diol oxalate]
EC50 [3]: 130 nM | IC50 [4]: 1600 nM | EC50 [1]: 10500 nM | LD50 [2]: > 600 mg/kg

CN(C)CCO/N=C\[C@H]1CC[C@@]2(C)[C@H](C1)[C@@H](O)C[C@@H]1[C@@H]2CC[C@]2(C)[C@@H](O)CC[C@@H]12 [I-e, (Z)-3β-(2-N,N-dimethylaminoethoxyiminomethyl)-5α-androstan-6α,17β-diol oxalate]
EC50 [3]: 160 nM | IC50 [4]: 2000 nM | EC50 [1]: 5600 nM | LD50 [2]: > 600 mg/kg

CN(C)CCO/N=C/C=C1\CC[C@@]2(C)[C@H](C1)[C@@H](O)C[C@@H]1[C@@H]2CC[C@]2(C)[C@@H](O)CC[C@@H]12 [I-f, (E)-3-[3-(2-N,N-dimethylaminoethoxyimino)(E)-propen-1-yl)-5α-androstan-6α,17β-diol]
EC50 [3]: 100 nM | IC50 [4]: 1000 nM | EC50 [1]: 800 nM | LD50 [2]: 560 mg/kg

C[C@]12CCC(=NOCCN)C[C@@H]1C(=O)C[C@@H]1[C@@H]2CC[C@]2(C)C(=O)CC[C@@H]12 [I-h, (E,Z)-3-(2-aminoethoxyimino)-5α-androstan-6,17-dione emioxalate]
EC50 [3]: 20 nM | IC50 [4]: 300 nM | EC50 [1]: 600 nM | LD50 [2]: 520 mg/kg

CN(C)CCO/N=C1/CC[C@@]2(C)[C@H](C1)C(=O)C[C@@H]1[C@@H]2CC[C@]2(C)C(=O)CC[C@@H]12 [I-i, (Z)-3-(2-N,N-dimethylaminoethoxyimino)-5α-androstan-6,17-dione]
EC50 [3]: 500 nM | IC50 [4]: 12000 nM | EC50 [1]: 7100 nM | LD50 [2]: > 1000 mg/kg

CN(C)CCO/N=C/C=C1\CC[C@@]2(C)[C@H](C1)C(=O)C[C@@H]1[C@@H]2CC[C@]2(C)C(=O)CC[C@@H]12 [I-k, (E)-3-[3-(2-N,N-dimethylaminoethoxyimino)(E)-propen-1-yl)-5α-androstan-6,17-dione oxalate]
EC50 [3]: 320 nM | IC50 [4]: 3200 nM | EC50 [1]: 12600 nM | LD50 [2]: > 600 mg/kg

CN(C)CCCO[C@H]1CC[C@@]2(C)[C@H](C1)C(=O)C[C@@H]1[C@@H]2CC[C@]2(C)C(=O)CC[C@@H]12 [I-m, 3β-(3-N,N-dimethylaminopropoxy)-5α-androstan-6,17-dione]
EC50 [3]: 1300 nM | IC50 [4]: 50000 nM | EC50 [1]: 20000 nM | LD50 [2]: > 1000 mg/kg
